Assay results as given in the supplement of paper PMC11208160.

Experiment: recombinant barcode read abundance after kanamycin selection (control-corrected) (log10(CPM+1)); higher = more efficient recombination; sequences stand for … in AGTGCAGAGAAAATCGGCCAGTTTTCTCTGCCTGCAGTCCGCATGCCGT…AGATTTATGCAGCGGACTGCCTTTCTCCCAAAGTGATAAACCGGACAGTATCATGGACCGGTTTTCCCGGTAATCCGTATTTGCAAGGTTGGTTTCACT; site = the 11-nt target
Experimental: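 Pooled E. coli target-specificity screen for the IS621 bridge recombinase. Each library plasmid pairs an 11-nt target (CT core) with a bridge RNA whose target-binding loop (9-nt LTG + 4-nt RTG) is reprogrammed; the rest of the 177-nt WT IS621 bridge RNA scaffold is fixed. The plasmid is co-electroporated with a WT donor plasmid; recombinase is induced with 0.1 mM IPTG and recombinants are selected on kanamycin. Recombinant barcodes are sequenced, converted to CPM, averaged over two biological replicates and corrected by the unselected control CPM. Molecule = full bridge RNA written as DNA: LTG = specificity nt 1-9, RTG = reverse complement of specificity nt 8-11, in the WT scaffold.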
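Also: IS621 recombinase and bridge RNA in Escherichia coli cells.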

Sequence	recombinant barcode read abundance (log10)
ACCCGTACTTGGGTTCTAACCTGTTGCCT (site ACCAGTACTAG)	0.063
ACCCGTACTTGGGTTCTAACCTGTTGCCT (site ACCCGTACTAG)	1.26
ACCCGTACTTGGGTTCTAACCTGTTGCCT (site ACCGGTACTAG)	0.0386
ACCCGTACTTGGGTTCTAACCTGTTGCCT (site ACCTGTACTAG)	0.485
ACCCGTCCTTGGGTTCTAACCTGTTGCAG (site ACCCGTCCTCT)	2.67
ACCCGTCCTTGGGTTCTAACCTGTTGCAG (site GGCCGTCCTCT)	0.051
ACCCTAGCTTGGGTTCTAACCTGTTGCCA (site ACCCTAGCTTG)	1.52
ACCCTAGCTTGGGTTCTAACCTGTTGCCA (site ATCGTAGCTTG)	0.0661
ACCCTAGCTTGGGTTCTAACCTGTTGCTC (site AACCTAGCTTA)	0.191
ACCCTAGCTTGGGTTCTAACCTGTTGCTC (site ACCCTAGCTGA)	1.95
ACCCTATCTTGGGTTCTAACCTGTTGCTT (site ACCCTATCTAA)	0.944
ACCCTATCTTGGGTTCTAACCTGTTGCTT (site ACTCTGTCTAA)	0.114
ACCGACCCTTGGGTTCTAACCTGTTGCAT (site ACCGACCCTAT)	1.67
ACCGACCCTTGGGTTCTAACCTGTTGCAT (site TAGTTTGCTCG)	0.401
ACCGCGTCTTGGGTTCTAACCTGTTGCAT (site ACCGCGTCTAT)	0.521
ACCGCGTCTTGGGTTCTAACCTGTTGCAT (site TTGATAGCTTA)	0.0509
ACCGCTCCTTGGGTTCTAACCTGTTGCCT (site AACGCTCCTAG)	0.0208
ACCGCTCCTTGGGTTCTAACCTGTTGCCT (site ACCGCTCCTAG)	0.297
ACCGCTCCTTGGGTTCTAACCTGTTGCCT (site AGCGCTCCTAG)	0.0225
ACCGCTCCTTGGGTTCTAACCTGTTGCCT (site ATCGCTCCTAG)	0.0271
ACCTACCCTTGGGTTCTAACCTGTTGCCT (site ACATACACTAG)	0.136
ACCTACCCTTGGGTTCTAACCTGTTGCCT (site ACCTACCCTAG)	1.14

Sequence	recombinant barcode read abundance (log10)
ACCTACGCTTGGGTTCTAACCTGTTGCCT (site ACCTACGCTAG)	1.01
ACCTACGCTTGGGTTCTAACCTGTTGCCT (site ACCTACTCTAG)	0.23
ACCTACTCTTGGGTTCTAACCTGTTGCTT (site ACCTACTCTAA)	1.33
ACCTACTCTTGGGTTCTAACCTGTTGCTT (site AGCTACCCTAA)	0.315
ACCTCGGCTTGGGTTCTAACCTGTTGCTG (site ACCTCGGCTCA)	0.399
ACCTCGGCTTGGGTTCTAACCTGTTGCTG (site TGGCAATCTAG)	0.0759
ACCTTAGCTTGGGTTCTAACCTGTTGCTT (site ACCTTAGCTAA)	0.297
ACCTTAGCTTGGGTTCTAACCTGTTGCTT (site TAGGCGACTTG)	0.0735
ACCTTGTCTTGGGTTCTAACCTGTTGCTA (site ACCTTGTCTTA)	0.777
ACCTTGTCTTGGGTTCTAACCTGTTGCTA (site GCCATGTCTTA)	0.0578
ACGAAGGCTTGGGTTCTAACCTGTTGCCT (site ACGAAGGCTAG)	0.696
ACGAAGGCTTGGGTTCTAACCTGTTGCCT (site ACGAAGGCTCG)	0.0407
ACGAGCGCTTGGGTTCTAACCTGTTGCCT (site ACGAACGCTAG)	0.132
ACGAGCGCTTGGGTTCTAACCTGTTGCCT (site ACGACCGCTAG)	0.0589
ACGAGCGCTTGGGTTCTAACCTGTTGCCT (site ACGAGCGCTAG)	1.54
ACGAGCGCTTGGGTTCTAACCTGTTGCCT (site ACGATCGCTAG)	0.0598
ACGAGCTCTTGGGTTCTAACCTGTTGCTG (site ACGAGCTCTCA)	1.84
ACGAGCTCTTGGGTTCTAACCTGTTGCTG (site CCGCGCTCTCA)	0.0264
ACGAGTACTTGGGTTCTAACCTGTTGCTG (site ACGAGTACTCA)	1.02
ACGAGTACTTGGGTTCTAACCTGTTGCTG (site ACGAGTACTCC)	0.662
ACGAGTCCTTGGGTTCTAACCTGTTGCGT (site ACGAGTCCTAC)	2.6
ACGAGTCCTTGGGTTCTAACCTGTTGCGT (site ACGAGTCCTAG)	0.202

Sequence	recombinant barcode read abundance (log10)
ACGCAATCTTGGGTTCTAACCTGTTGCCT (site ACGCAATCTAG)	0.0303
ACGCAATCTTGGGTTCTAACCTGTTGCCT (site ACGCACTCTAG)	0.0895
ACGCAATCTTGGGTTCTAACCTGTTGCCT (site ACGCAGTCTAG)	0.131
ACGCAATCTTGGGTTCTAACCTGTTGCCT (site ACGCATTCTAG)	0.157
ACGCACTCTTGGGTTCTAACCTGTTGCCG (site ACGCACTCTCG)	0.646
ACGCACTCTTGGGTTCTAACCTGTTGCCG (site GATGGTACTAT)	0.0148
ACGCATTCTTGGGTTCTAACCTGTTGCCT (site ACGCAATCTAG)	0.0565
ACGCATTCTTGGGTTCTAACCTGTTGCCT (site ACGCACTCTAG)	0.123
ACGCATTCTTGGGTTCTAACCTGTTGCCT (site ACGCAGTCTAG)	0.0603
ACGCATTCTTGGGTTCTAACCTGTTGCCT (site ACGCATTCTAG)	0.355
ACGCGCCCTTGGGTTCTAACCTGTTGCAC (site ACGCGCCCTGT)	0.152
ACGCGCCCTTGGGTTCTAACCTGTTGCAC (site CCGCGCCCTAT)	0.0707
ACGCTATCTTGGGTTCTAACCTGTTGCTT (site ACGCTATCTAA)	0.13
ACGCTATCTTGGGTTCTAACCTGTTGCTT (site CTAGCGACTCG)	0.159
ACGGCATCTTGGGTTCTAACCTGTTGCCT (site ACGGCATCTAG)	0.0883
ACGGCATCTTGGGTTCTAACCTGTTGCCT (site ACGGCCTCTAA)	0.225
ACGGGCTCTTGGGTTCTAACCTGTTGCTT (site ACGGGCTCTAA)	2.69
ACGGGCTCTTGGGTTCTAACCTGTTGCTT (site AGGGGCTCTCA)	0.032
ACGGTCACTTGGGTTCTAACCTGTTGCCG (site ACGGTCACTCG)	0.435
ACGGTCACTTGGGTTCTAACCTGTTGCCG (site AGGGGCACTCG)	0.533
ACGTCAACTTGGGTTCTAACCTGTTGCCT (site ACATCAACTAG)	0.192
ACGTCAACTTGGGTTCTAACCTGTTGCCT (site ACCTCAACTAG)	0.454
